Results reported in patent US10576151B2, “Ciclopirox for use in modulation of glucose homeostasis” (UNIVERSITY OF SOUTH CAROLINA, priority 2015, dated 2020).

Columns and labels:
diabetic mice = conditions: cited from earlier work
BiP, GRP94 and CHOP = assay: Western blot of ER stress markers in islets in culture; format: cell-based, mouse; conditions: islets exposed to increasing amounts of iron citrate alone (FIG. 12A)
Method: (§1) Western Blotting. The mouse islets were treated with CPX 20 μM for 24 h and lysed in RIPA buffer [50 mM Tris, pH 7.2; 150 mM NaCl; 1% sodium deoxycholate; 0.1% SDS; 1% Triton-X 100; 10 mM NaF; 1 mM Na3VO4; protease inhibitor cocktail (1:1000, Sigma, St. Louis, Mo.)] and were subjected to immunoblot analysis by standard methods. Proteins were resolved on a 10% SDS-PAGE and transferred to a nitrocellulose membrane (Bio-Rad, Hercules, Calif.). Membranes were probed overnight with GADD153 (F-168), sc-575 from Santa Cruz Biotechnology (1:50); p21 (F-5), sc-6246 from Santa Cruz Biotechnology (1:200); actin, clone C4 MAB1501 from Millipore (Billerica, Mass., USA) (1:2000); BiP antibody (cat. no. 3183) from Cell Signaling (Danvers, Mass., USA) (1:1000); GRP94 antibody (H-212), sc-11402 from Santa Cruz Biotechnology (1:500); insulin rabbit polyclonal H-86, sc-9168 from Santa Cruz Biotechnology (1:500) antibodies followed by incubation with horseradish peroxidase-conjugated (HRP) anti-mouse (1:10000), goat anti-rabbit IgG (1:10000, Santa Cruz biotechnology Inc., Santa Cruz, Calif., USA) for 1 hr. After incubation with enhanced chemiluminescence reagents (Santa Cruz biotechnology Inc.), membranes were analyzed using an Image J software for Windows.
(§2) In order to understand better how CPX operates in β cells, it was tested to determine if it affected the efficiency by which insulin is produced following glucose stimulation. […] In view of the antidiabetic activity of CPX in vivo, the inhibition of insulin release appears contradictory. […]
(§3) While modulation of insulin release by CPX constitutes a challenging mechanism by which CPX may affect ER stress, how CPX regulates insulin expression remains obscure. […] To test this hypothesis, islets were exposed to iron citrate, alone or combined with CPX, and the levels were recorded of chaperones BiP, GRP94 and CHOP, as well as of insulin.

insulin = assay: Western blot of insulin levels in islets in culture; format: cell-based, mouse; conditions: islets exposed to increasing amounts of iron citrate alone (FIG. 12A)
Method: as §1, §2, §3

Row | Compound | effect on diabetes (diabetic mice; mice, stimulation of p53/p21 activity) | response of diabetes to treatment (diabetic mice; p21-deficient diabetic mice) | ER stress-markers BiP, GRP94 and CHOP (BiP, GRP94 and CHOP) | insulin production (insulin)
1 | COc1ccc(C2=N[C@@H](c3ccc(Cl)cc3)[C@@H](c3ccc(Cl)cc3)N2C(=O)N2CCNC(=O)C2)c(OC(C)C)c1 [nutlin-3a] | beneficial for diabetes in mice | unresponsive to nutlin-3a |  | 
2 | iron citrate |  |  | induced ER stress-markers BiP, GRP94 and CHOP | triggered insulin production
